System: Pseudomonas aeruginosa (ATCC 15442)
Test: Simulated biofilm (bacteria entrapped in alginate gel beads)
Format: cell-based
Details: 2.5 ppm DBNPA, 30 minutes contact time
Excerpt: The biofilm simulation was created by entrapping bacteria in alginate gel beads.

N#CC(Br)(Br)C(N)=O [DBNPA, 2,2-Dibromo-3-nitrilopropionamide]
log reduction (as compared to control): 3 log reduction
